Measurements published in article PMC7038240 (Antimicrobial Agents and Chemotherapy, 2020).
Like-named read-outs stand apart in the source and are kept apart here.

Assays:
Format in all cases: cell-based
[1] = tested on: M. morgannii; assay: organism not typed; conditions: strain 769909; OXA-48
Source text: (§1) The antibacterial activity of cefepime-taniborbactam was compared to that of ceftazidime-avibactam, ceftolozane-tazobactam, and cefepime-tazobactam against a diverse panel of Enterobacterales and P. aeruginosa clinical isolates with defined β-lactamase subtypes (see Table S1 in the supplemental material). IMP-producing strains were excluded, as none of the BLI-protected cephalosporins inhibited IMP sufficiently to provide a clinically relevant rescue of the partner β-lactam, a characteristic also shared by approved BLI-protected carbapenems (meropenem-vaborbactam and imipenem-relebactam). […] The antibacterial activity of the cephalosporins alone was included to ascertain the level of potentiation by the partnered BLI. BLIs were tested at a fixed concentration of 4 μg/ml in all combinations except cefepime-tazobactam, where tazobactam was fixed at a concentration of 8 μg/ml ([38]). The collection comprised 143 clinical isolates collected from 2005 and 2018.
(§2) The in vitro antibacterial activity of the β-lactams alone or in combination with the BLIs was determined in cation-adjusted Mueller-Hinton broth (CAMHB) microdilution assays according to CLSI recommendations ([51]). […]. The inocula for the broth microdilution assays were prepared by the broth culture method ([51]). […]

[2] = tested on: K. oxytoca; assay: microbe, parasite or virus in culture; conditions: Klebsiella oxytoca, read-out: MIC
Source text: as §1, §2

[3] = tested on: K. pneumoniae; assay: microbe, parasite or virus in culture; conditions: Klebsiella pneumoniae, read-out: MIC
Source text: as §1, §2

[4] = tested on: C. freundii; assay: microbe, parasite or virus in culture; conditions: Citrobacter freundii
Source text: as §1, §2

[5] = tested on: S. marcescens; assay: microbe, parasite or virus in culture; conditions: Serratia marcescens
Source text: as §1, §2

[6] = tested on: S. typhi; assay: microbe, parasite or virus in culture; conditions: Salmonella enterica, strain 26A, AmpC/TEM-1
Source text: as §1, §2

[7] = tested on: S. paratyphi; assay: microbe, parasite or virus in culture; conditions: Salmonella enterica, strain 527, AmpC/TEM-1
Source text: as §1, §2

[8] = tested on: K. aerogenes; assay: microbe, parasite or virus in culture; conditions: Klebsiella aerogenes
Source text: as §1, §2

[9] = tested on: E. coli; assay: microbe, parasite or virus in culture; conditions: Escherichia coli, read-out: MIC
Source text: as §1, §2

Measured: MIC

CO/N=C(\C(=O)N[C@@H]1C(=O)N2C(C(=O)[O-])=C(C[N+]3(C)CCCC3)CS[C@H]12)c1csc(N)n1 [FEP]
0.06 µg/mL: [1] | [3]; ATCC13883, K. pneumoniae ATCC 13883, enzyme content None | [9]; ATCC25922, E. coli ATCC 25922, enzyme content None
0.5 µg/mL: [4]; strain 134390, AmpC/TEM-1 | [8]; strain 73546, AmpC
16 µg/mL: [3]; BAA1705, K. pneumoniae BAA 1705, KPC-2 | [3]; strain 137052, SHV-11/KPC-3/TEM-1 | [3]; strain 196477, AmpC | [3]; strain 769972, OXA-48 | [3]; strain 882956, SHV-31/DHA-1/VIM-1 | [3]; strain 1280442, SHV-OSBL(b)/VIM-1 | [3]; strain KIRK, OXA-162 | [3]; strain KP 3, SHV-1/TEM-1 | [3]; strain SI-C05, OXA-48 | [3]; strain SI-KP NO30, TEM-26b/SHV-60/SHV-26
≥ 256 µg/mL: [3]; strain 845661, KPC | [3]; strain 848562, KPC | [3]; strain 848600, KPC | [3]; strain 848828, KPC | [3]; strain 849170, KPC | [3]; strain 871489, KPC | [3]; strain 1104864, SHV-OSBL(b)/VIM-1 | [3]; strain 1104866, SHV-OSBL(b)/VIM-1 | [3]; strain CDC-0049, NDM | [3]; strain CDC-0139, NDM-1 | [3]; strain CDC-0145, NDM | [3]; strain CDC-0152, NDM
256 µg/mL: [3]; K. pneumoniae CDC-0049 (NDM), BLI fixed at 4 μg/ml
128 µg/mL: [3]; strain 752334, OXA-48 | [3]; strain 874328, SHV-11/CTX-M-15/NDM-1 | [3]; strain 882752, SHV-11/TEM-1/KPC-3 | [3]; strain 919877, SHV-OSBL/VIM-1 | [3]; strain CDC-0148, NDM
4 µg/mL: [2]; strain 134943, CMY-2/TEM-1 | [3]; strain ESBL8 #1, TEM-1/SHV-12 | [5]; strain 134434, AmpC/SHV-12/TEM-1 | [5]; strain 192476, AmpC/TEM-1/SHV-5 | [5]; strain 192478, AmpC/SHV-12/TEM-1 | [6] | [8]; strain 110099, AmpC/SHV-12 | [8]; strain 111707, AmpC/TEM-1
32 µg/mL: [2]; strain 847537, KPC | [3]; strain 515746, OXA-48 | [3]; strain 664438, OXA-48 | [3]; strain 664439, OXA-48 | [3]; strain 847204, KPC | [3]; strain 856819, SHV-11/VIM-1 | [3]; strain 864085, KPC | [3]; strain 873460, SHV-30/CTX-M-15 | [3]; strain 884679, KPC | [3]; strain 892694, SHV-12/TEM-1/CTX-M-15/OXA-48/ACT | [3]; strain CDC-0003, KPC | [3]; strain DOV, OXA-48
64 µg/mL: [3]; strain 6299, OXA-163 | [3]; strain 787422, OXA-48 | [3]; strain 890066, SHV-33/TEM-33/CTX-M-15/IMP-1 | [3]; strain CDC-0117, KPC-3 | [3]; strain CDC-0125, KPC-3 | [7] | [9]; E. coli CDC-0452, NDM
2 µg/mL: [3]; strain 212027, AmpC/FOX-5/TEM-1 | [5]; strain 218073, AmpC/SHV-7/TEM-1
1 µg/mL: [3]; strain SI-F100, SHV-5/TEM-1/CMY-2
8 µg/mL: [3]; strain 178279, SHV-12/TEM-1/AmpC | [3]; strain 722870, OXA-48 | [3]; strain ESBL 10, SHV-12/TEM-1 | [3]; strain KPN 508, SHV-7/TEM-1 | [4]; strain 241181, AmpC/TEM-163
